Experimental data: article PMC4449006, “Targeting KRAS Oncogene in Colon Cancer Cells with 7-Carboxylate Indolo[3,2-b]quinoline Tri-Alkylamine Derivatives” (PLoS ONE, 2015)
Counter-ions that a name gives are not always drawn.

Legend:
[1] = tested on: KRAS21 G-quadruplex DNA; assay: FRET melting assay, KRAS G-quadruplex DNA; format: binding; conditions: standard deviation < 0.2°C; for ΔTm (°C) KRAS21 1 μM: 1 μM compound; for ΔTm (°C) KRAS21 2 μM: 2 μM compound
Method: (§1) The capacity of compounds 1a-d, 2a-d and the standard G4 ligand TMPyP4 (Fig 1) to bind and stabilize KRAS [26] and HSP90A [27] G4 DNA structures as well as duplex DNA (T-loop) was evaluated by a Fluorescence Resonance Energy Transfer (FRET) melting assay. […] It was observed that the basicity of side chains correlates positively with thermal G4 stabilization of all DNA sequences up to an optimal pKa ~ 8.0–9.0 (Fig 2). Heterocyclic amines at the end of alkyl side chain (1b and 2b) appear to improve binding to G4s and complex stabilization compared to the di-ethylamine group (1a and 2a), which cannot be explained by differences in basicity between terminal groups. […] However, this was not observed for the isomeric pair 1a / 2a.
(§2) All oligonucleotides were purchased from Eurofins MWG Synthesis GmbH, Germany. The labeled oligonucleotides used in the FRET assays had attached the donor fluorophore FAM (6-carboxyfluorescein) and the acceptor fluorophore TAMRA (6-carboxytetramethylrhodamine): KRAS21R (5’-FAM-[…]-TAMRA-3’); HSP90A (5’- [FAM]-[…]-[TAMRA]-3’); T-Loop (5’-FAM-[…]-TAMRA-3’). Each oligonucleotide was initially diluted to a storage solution at 100 μM in nuclease free water (not DEPC-treated), purchased from Ambion Applied Biosystems UK.
(§3) The ability of IQ3A and TMPyP4 to stabilize G-quadruplex and duplex DNA sequences was investigated using a Fluorescence Resonance Energy Transfer (FRET) assay. Stock solution of the oligonucleotides sequences at 20 μM and subsequent dilutions were obtained from storage solutions diluting with K-cacodylate buffer pH = 7.4, containing 60 mM K^+ (10 mM potassium cacodylate, 50 mM KCl). The FRET probe sequences were diluted from stock to the correct concentration (0.4 μM) and then annealed by heating to 95°C for 10 min, followed by cooling to RT. Test compounds were prepared as 1 mM in 10% DMSO and 10% 1mM HCl in HPLC-grade water. The rest of the dilutions were performed using FRET buffer. Annealed DNA (50 μL) and compound solution (50 μL) were distributed across 96-well RT-PCR plates (BioRad; MJ Research, Waltham, MA, USA). Relevant controls were also performed to check for interference with the assay. Fluorescence readings were made on a DNA Engine Opticon (MJ Research) with excitation at 450–495 nm and detection at 515–545 nm, taken at intervals of 0.5°C in the range 30–100°C, with a constant temperature being maintained for 30 s prior to each reading to ensure a stable value. Experiments were performed in triplicate. Final analysis of the data was carried out with GraphPad Prism 5.0 software (GraphPad Software, Inc). The advanced curve-fitting function in GraphPad Prism was used for calculation of ΔT m values and associated standard deviations.

[2] = tested on: T-Loop duplex DNA; assay: FRET melting assay, duplex DNA; format: binding; conditions: standard deviation < 0.2°C; for ΔTm (°C) T-Loop 1 μM: 1 μM compound; for ΔTm (°C) T-Loop 2 μM: 2 μM compound
Method: as §1, §2, §3

[3] = tested on: SW620 cells; assay: MTS short-term cytotoxicity assay (72 h), SW620; format: cell-based; conditions: for SW620 IC65 / IC50: 72 h, MTS, standard errors ≤ 0.1; for IC50: Homo sapiens, SW-620, read-out: SW620 IC50
Method: (§4) The short-term effect of compounds at 72 h on cell growth was studied using colorectal carcinoma cell lines with different KRAS and TP53 genotypes: human colorectal carcinoma HCT116 (mut Kras, wild-type (wt) p53), and human metastatic colorectal adenocarcinoma SW620 (mut Kras, mut p53). In parallel, we also used the immortalized human embryonic kidney cell line HEK293T (wt Kras, wt p53) and normal human colon fibroblast cells CCD18co (wt Kras, wt p53).
(§5) SW620 human colorectal adenocarcinoma cells (European Collection of Cell Cultures, ECACC, Porton Down, Wiltshire, UK), HEK293T human embryonic kidney cells (ATCC, LGC Standards, UK) HCT116 human colon carcinoma cells (ECACC), HCT116 p53(+/+) and p53(−/−) isogenic human colon cancer cells (GRCF Cell Center and Biorepository, the Johns Hopkins University, School of Medicine, Baltimore, MD, USA), were grown in Dulbecco’s modified Eagle’s medium (DMEM) supplemented with 10% fetal bovine serum, and 1% antibiotic/antimycotic (Invitrogen, Grand Island, NY, USA), CCD18co human colon fibroblasts (ATCC, CRL-1459) were grown in Minimum Essential Medium (MEM) supplemented with 10% fetal bovine serum, 1% antibiotic/antimycotic, 2 mM GlutaMAX, 0,1 mM Non-essential amino acids (NEAA) (Invitrogen) and […] Recombinant Human TNF-α (Peprotech, USA) and maintained at 37°C in a humidified atmosphere of 5% CO2.
(§6) Cell viability was evaluated by the tetrazolium dye (MTS) Short-Term Cytotoxicity Assay. […] Following 72 h of compound exposure, cell viability was evaluated using the CellTiter 96 AQueous Non-Radioactive Cell Proliferation Assay (Promega, Madison, WI, USA), using 3-(4,5-dimethylthiazol-2-yl)-5-(3-carboxymethoxyphenyl)-2-(4-sulfophenyl)-2H-tetrazolium, inner salt (MTS) as previously described [35]. Cell viability data were expressed as mean ±SD from at least three independent experiments. IC50 and IC65 values were determined using GaphPad Prism v.5.00 (GraphPad Software). In selected experiments, cell viability was also assessed by trypan blue exclusion assay, and general cell death by LDH activity from cell culture supernatants.

[4] = tested on: HSP90A G-quadruplex DNA; assay: FRET melting assay, HSP90A G-quadruplex DNA; format: binding; conditions: standard deviation < 0.2°C; for ΔTm (°C) HSP90A 1 μM: 1 μM compound; for ΔTm (°C) HSP90A 2 μM: 2 μM compound
Method: as §1, §2, §3

[5] = tested on: HEK293T cells; assay: MTS short-term cytotoxicity assay (72 h), HEK293T; format: cell-based, human; conditions: MTS; for IC50: Homo sapiens, HEK-293T, standard errors ≤ 0.1, read-out: HEK293T IC50; for HEK293T IC65: standard errors ≤ 0.1
Method: as §4, §5, §6

[6] = tested on: CCD18co cells; assay: MTS short-term cytotoxicity assay (72 h), CCD18co; format: cell-based; conditions: Homo sapiens, CCD-18Co, MTS, standard errors ≤ 0.1, read-out: CCD18co IC50
Method: as §4, §5, §6

[7] = tested on: HCT116 cells; assay: MTS short-term cytotoxicity assay (72 h), HCT116; format: cell-based, human; conditions: for HCT116 IC65 / IC50: 72 h, MTS, standard errors ≤ 0.1; for Selective index (SI) = IC50 CCD-18co / IC50 HCT116: CCD18co vs HCT116; for IC50: Homo sapiens, HCT-116, read-out: HCT116 IC50
Method: as §4, §5, §6

[8] = tested on: KRAS mRNA; assay: KRAS mRNA steady-state levels by Taqman Real-time RT-PCR; conditions: IC50 concentrations
[9] = tested on: HCT116 cells; design: method as in PMID 23960016; conditions: HCT116 vs primary rat hepatocytes; cited from earlier work

Row | SMILES | ΔTm (°C) KRAS21 1 μM [1] [°C] | ΔTm (°C) KRAS21 2 μM [1] [°C] | ΔTm (°C) T-Loop 1 μM [2] [°C] | ΔTm (°C) T-Loop 2 μM [2] [°C] | SW620 IC65 [3] [nM] | IC50 [3] [nM] | IC50 fold lower than that of 5-FU ([3]; SW620 cells) [fold] | ΔTm (°C) HSP90A 1 μM [4] [°C] | ΔTm (°C) HSP90A 2 μM [4] [°C] | IC50 [5] [nM] | HEK293T IC65 [5] [nM] | IC50 [6] [nM] | HCT116 IC65 [7] [nM] | Selective index (SI) = IC50 CCD-18co / IC50 HCT116 [7] | IC50 [7] [nM] | down-regulation of KRAS transcription (mRNA) ([8]; HCT116, 72 h) [%] | down-regulation of KRAS transcription (mRNA) ([8]; SW620, 72 h) | melting point [°C] | Selective growth inhibition of KRAS mutant HCT116 cells compared to primary rat hepatocytes [9] [fold]
1 | O=C(OCCCN1CCCCC1)c1ccc2c(c1)c1c(c(=O)c3ccccc3n1CCCN1CCCCC1)n2CCCN1CCCCC1 [2d] | 13 | 22 | 4 | 12 | 450 | 280 | ~20 | 19 | 25 | 700 | 1120 | 2180 | 580 | 5.45 | 400 | ~40 | not significantly so |  | 
2 | O=C(OCCCN1CCCCC1)c1ccc2c(c1)c1nc3ccccc3c(OCCCN3CCCCC3)c1n2CCCN1CCCCC1 (as salt: salt) [1d] |  |  |  |  |  |  |  |  |  |  |  |  |  |  |  |  |  | 124 to 128 | 
3 | O=C(OCCN1CCOCC1)c1ccc2c(c1)c1nc3ccccc3c(OCCN3CCOCC3)c1n2CCN1CCOCC1 [1c] | <2 | <2 | <2 | <2 |  |  |  | 4 | 7 |  |  |  |  |  |  |  |  |  | 
4 | O=C(OCCN1CCCC1)c1ccc2c(c1)c1nc3ccccc3c(OCCN3CCCC3)c1n2CCN1CCCC1 (as salt: salt) [1b] |  |  |  |  |  |  |  |  |  |  |  |  |  |  |  |  |  | 159 to 164 | 
5 | O=C(OCCN1CCCC1)c1ccc2c(c1)c1nc3ccccc3c(OCCN3CCCC3)c1n2CCN1CCCC1 [1b] | 5 | 10 | <2 | 6 |  |  |  | 12 | 16 |  |  |  |  |  |  |  |  |  | 
6 | O=C(OCCN1CCCC1)c1ccc2c(c1)c1c(c(=O)c3ccccc3n1CCN1CCCC1)n2CCN1CCCC1 [2b] | 10 | 16 | 3 | 6 |  |  |  | 14 | 19 |  |  |  |  |  |  |  |  |  | 
7 | O=C(OCCN1CCOCC1)c1ccc2c(c1)c1nc3ccccc3c(OCCN3CCOCC3)c1n2CCN1CCOCC1 (as salt: salt) [1c] |  |  |  |  |  |  |  |  |  |  |  |  |  |  |  |  |  | 141 to 145 | 
8 | CCN(CC)CCOC(=O)c1ccc2c(c1)c1c(c(=O)c3ccccc3n1CCN(CC)CC)n2CCN(CC)CC [2a] | 4 | 7 | <2 | <2 | 1440 | 670 |  | 11 | 15 | 670 | 940 | 5410 | 1600 | 5.46 | 990 | ~40 | not significantly so |  | 100
9 | O=C(OCCCN1CCCCC1)c1ccc2c(c1)c1nc3ccccc3c(OCCCN3CCCCC3)c1n2CCCN1CCCCC1 [1d] | 9 | 18 | <2 | 10 |  |  |  | 15 | 21 |  |  |  |  |  |  |  |  |  | 
